Experimental data: BindingDB's records for doi:10.1021/acs.jmedchem.6b00541 (Vertex Pharmaceuticals, 2016)

What was measured:
[1] = Allosteric inhibition of HCV genotype 1b NS5A infected in human l389lucubi- neo/NS3-375.1-containing Huh7ET cells assessed as RNA replication/translation after 4 days in presence of 40% human serum by luciferase reporter gene assay
[2] = Allosteric inhibition of HCV genotype 1a NS5A infected in human W11.8 cells assessed as reduction in viral RNA replication after 4 days by ELISA
Nonstructural protein 5A = target: T1, Nonstructural protein 5A (UniProt Q5L478); assay: Allosteric inhibition of HCV genotype 1b NS5A infected in human l389lucubi- neo/NS3-375.1-containing Huh7ET cells assessed as RNA replication/translation after 4 days by luciferase reporter gene assay
T1 sequence (Q5L478 whole entry): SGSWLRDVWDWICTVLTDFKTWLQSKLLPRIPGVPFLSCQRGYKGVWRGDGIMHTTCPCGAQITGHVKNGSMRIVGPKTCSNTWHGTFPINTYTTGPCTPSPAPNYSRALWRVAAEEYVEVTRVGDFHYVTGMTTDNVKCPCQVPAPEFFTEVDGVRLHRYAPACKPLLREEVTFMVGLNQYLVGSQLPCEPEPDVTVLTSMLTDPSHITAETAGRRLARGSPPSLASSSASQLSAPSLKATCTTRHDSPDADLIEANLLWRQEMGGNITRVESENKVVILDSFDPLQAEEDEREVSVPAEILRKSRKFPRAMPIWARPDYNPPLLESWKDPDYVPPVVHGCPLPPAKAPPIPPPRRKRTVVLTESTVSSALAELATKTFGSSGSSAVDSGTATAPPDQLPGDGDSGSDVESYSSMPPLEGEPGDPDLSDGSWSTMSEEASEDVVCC

[3] = Allosteric inhibition of HCV genotype 1b NS5A infected in human l389lucubi- neo/NS3-375.1-containing Huh7ET cells assessed as RNA replication/translation after 4 days by luciferase reporter gene assay

Row | SMILES | EC50 [1] [nM] | EC50 [2] [nM] | EC50 (Nonstructural protein 5A) [nM] | EC50 [3] [nM]
1 | CC(C)(C)C#Cc1cc(N(CC(=O)N2CCOCC2)C(=O)[C@H]2CC[C@H](C)CC2)c(C(=O)O)s1 | 340 | 37 | 23 | –
2 | CC(C)(C)C#Cc1cc(N(CC(=O)N2CCCC2)C(=O)[C@H]2CC[C@H](C)CC2)c(C(=O)O)s1 | – | 32 | – | 21
3 | C[C@@H](C(=O)N(C)C)N(c1cc(C#CC(C)(C)C)sc1C(=O)O)C(=O)[C@H]1CC[C@H](C)CC1 | – | 7 | – | 5
4 | CC[C@@H](C(=O)N(C)C)N(c1cc(C#CC(C)(C)C)sc1C(=O)O)C(=O)[C@H]1CC[C@H](C)CC1 | – | 24 | – | 16
5 | COC1CCN(C(=O)CN(c2cc(C#CC(C)(C)C)sc2C(=O)O)C(=O)[C@H]2CC[C@H](C)CC2)CC1 | – | – | – | 17
6 | CC(C)(C)C#Cc1cc(N(CC(=O)N2CCC(O)CC2)C(=O)[C@H]2CC[C@H](C)CC2)c(C(=O)O)s1 | – | – | – | 64
7 | CCN(CC)C(=O)CN(c1cc(C#CC(C)(C)C)sc1C(=O)O)C(=O)[C@H]1CC[C@H](C)CC1 | – | 51 | – | 23
8 | CN(C)C(=O)CN(c1cc(C#CC(C)(C)C)sc1C(=O)O)C(=O)[C@H]1CC[C@H](C)CC1 | – | 35 | – | 12
9 | COC[C@@H](C(=O)N(C)C)N(c1cc(C#CC(C)(C)C)sc1C(=O)O)C(=O)[C@H]1CC[C@H](C)CC1 | – | 11 | – | 7
10 | CCC[C@@H](C(=O)N(C)C)N(c1cc(C#CC(C)(C)C)sc1C(=O)O)C(=O)[C@H]1CC[C@H](C)CC1 | – | – | – | 14
11 | C[C@H](C(=O)N(C)C)N(c1cc(C#CC(C)(C)C)sc1C(=O)O)C(=O)[C@H]1CC[C@H](C)CC1 | – | – | – | 109
12 | CC(C)(C)C#Cc1cc(N(CC(=O)N2CCCCC2)C(=O)[C@H]2CC[C@H](C)CC2)c(C(=O)O)s1 | – | – | – | 67
13 | CN(C)C(=O)[C@H](CO)N(c1cc(C#CC(C)(C)C)sc1C(=O)O)C(=O)[C@H]1CC[C@H](C)CC1 | – | – | – | 60
14 | CNC(=O)CN(c1cc(C#CC(C)(C)C)sc1C(=O)O)C(=O)[C@H]1CC[C@H](C)CC1 | – | – | – | 190
15 | CN1CCN(C(=O)CN(c2cc(C#CC(C)(C)C)sc2C(=O)O)C(=O)[C@H]2CC[C@H](C)CC2)CC1 | – | – | – | 6
16 | CC(C)(C)C#Cc1cc(N(CC(=O)N2CC(O)C2)C(=O)[C@H]2CC[C@H](C)CC2)c(C(=O)O)s1 | – | – | – | 66
17 | CC(C)NC(=O)CN(c1cc(C#CC(C)(C)C)sc1C(=O)O)C(=O)[C@H]1CC[C@H](C)CC1 | – | – | – | 160
18 | CC(C)[C@@H](C(=O)N(C)C)N(c1cc(C#CC(C)(C)C)sc1C(=O)O)C(=O)[C@H]1CC[C@H](C)CC1 | – | – | – | 51
19 | CN(C)CCN(C)C(=O)CN(c1cc(C#CC(C)(C)C)sc1C(=O)O)C(=O)[C@H]1CC[C@H](C)CC1 | – | – | – | 9
20 | CC(C)(C)C#Cc1cc(N(C(=O)[C@H]2CC[C@H](C)CC2)[C@H]2CC[C@H](O)CC2)c(C(=O)O)s1 [Lomibuvir] | – | 53 | – | 7
